We go through 13 compounds from US6855730B2, “3-methylidenyl-2-indolinone modulators of protein kinase” (Sugen, Inc., priority 1998, dated 2005).

One test concerns the target T1, PDGFR-β (Homo sapiens, UniProt P09619).
T1 construct: host or cells: NIH 3T3
Kind of test: Biochemical PDGFR assay (ELISA, PDGFR-β expressing NIH 3T3 cell lysate). As to conditions: read-out: bio PDGF IC50. The method in brief:
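Phosphorylation was read by ELISA (anti-phosphotyrosine serum, peroxidase secondary, ABTS at 410 nm) after a 30 min room-temperature reaction with 20 μM ATP, EDTA-stopped. Kinase was lysate-derived PDGFR-β (NIH 3T3) immobilised via 28D4C10 antibody, compound added 30 min before ATP.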

The target in test [1] is Myc-GyrB-FGFR fusion protein (Homo sapiens, UniProt P11362). Description: Biochemical FGFR assay (ELISA). As to conditions: read-out: bio fgfR1 IC50.
Chain of Myc-GyrB-FGFR fusion protein (P11362 478-767 limits assumed): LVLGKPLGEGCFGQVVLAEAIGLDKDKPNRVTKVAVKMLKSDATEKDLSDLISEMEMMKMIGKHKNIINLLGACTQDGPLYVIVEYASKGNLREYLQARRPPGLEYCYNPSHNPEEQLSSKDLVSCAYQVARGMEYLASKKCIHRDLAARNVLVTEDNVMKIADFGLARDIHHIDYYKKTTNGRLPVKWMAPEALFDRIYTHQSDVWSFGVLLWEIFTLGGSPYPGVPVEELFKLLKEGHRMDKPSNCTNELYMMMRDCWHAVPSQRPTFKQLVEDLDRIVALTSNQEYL
The target of a further test is T2, human flk-1 (Homo sapiens, UniProt P35968).
T2 construct: host or cells: Flk-1/NIH cells (NIH fibroblasts)
T2 sequence (P35968 20-1356): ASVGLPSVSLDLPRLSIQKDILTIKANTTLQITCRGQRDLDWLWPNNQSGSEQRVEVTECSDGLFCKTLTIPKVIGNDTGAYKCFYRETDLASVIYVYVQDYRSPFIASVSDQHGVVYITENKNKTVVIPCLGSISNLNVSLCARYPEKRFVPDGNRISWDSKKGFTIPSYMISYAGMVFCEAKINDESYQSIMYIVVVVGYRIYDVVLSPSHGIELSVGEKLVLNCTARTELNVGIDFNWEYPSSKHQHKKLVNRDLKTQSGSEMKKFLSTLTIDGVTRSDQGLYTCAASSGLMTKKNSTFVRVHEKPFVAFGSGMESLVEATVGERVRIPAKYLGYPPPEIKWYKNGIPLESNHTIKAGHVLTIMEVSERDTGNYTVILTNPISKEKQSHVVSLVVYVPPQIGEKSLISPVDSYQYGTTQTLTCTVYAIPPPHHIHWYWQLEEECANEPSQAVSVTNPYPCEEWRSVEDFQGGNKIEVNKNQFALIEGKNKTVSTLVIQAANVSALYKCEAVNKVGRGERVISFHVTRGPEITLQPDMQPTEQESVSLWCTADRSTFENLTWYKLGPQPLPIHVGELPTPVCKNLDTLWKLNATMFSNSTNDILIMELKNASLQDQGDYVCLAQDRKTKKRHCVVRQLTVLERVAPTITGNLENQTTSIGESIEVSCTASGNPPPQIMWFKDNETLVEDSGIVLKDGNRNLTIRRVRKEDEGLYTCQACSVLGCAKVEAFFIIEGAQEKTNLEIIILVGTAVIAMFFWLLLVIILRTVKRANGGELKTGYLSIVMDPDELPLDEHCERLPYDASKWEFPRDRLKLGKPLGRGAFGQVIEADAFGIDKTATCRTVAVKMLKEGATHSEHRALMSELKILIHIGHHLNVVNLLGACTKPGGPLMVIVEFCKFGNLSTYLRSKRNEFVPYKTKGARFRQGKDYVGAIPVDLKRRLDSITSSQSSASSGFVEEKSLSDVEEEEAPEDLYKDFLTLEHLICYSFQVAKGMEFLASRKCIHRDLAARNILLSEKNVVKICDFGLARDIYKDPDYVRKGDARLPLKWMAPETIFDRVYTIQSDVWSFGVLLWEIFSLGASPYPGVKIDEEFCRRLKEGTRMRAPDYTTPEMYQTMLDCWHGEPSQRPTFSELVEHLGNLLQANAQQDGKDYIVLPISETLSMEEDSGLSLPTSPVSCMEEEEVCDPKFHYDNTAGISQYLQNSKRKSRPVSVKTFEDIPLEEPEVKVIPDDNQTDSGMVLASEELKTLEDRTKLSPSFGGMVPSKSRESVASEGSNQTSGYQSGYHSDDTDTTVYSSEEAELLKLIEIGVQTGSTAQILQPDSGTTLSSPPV
Description: Biochemical FLK-1 assay (flk-1 autophosphorylation ELISA). As to conditions: read-out: bio FLK1 IC50 (μM) % if inhibition at 100. The protocol:
This assay evaluates flk-1 autophosphorylation activity in vitro using ELISA.
Materials And Reagents • 1. 15 cm tissue culture dishes • 2. Flk-1/NIH cells: NIH fibroblast line over-expressing human flk-1clone 3 (SUGEN, Inc., obtained from MPI, Martinsried, Germany). • 3. Growth medium: DMEM plus heat inactivated 10% FBS and 2 mM Glutamine (Gibco-BRL). • 4. Starvation medium: DMEM plus 0.5% heat-inactivated FBS, 2 mM Glutamine (Gibco-BRL). • 5. […] L4 or E38 monoclonal antibody specific for flk-1, Purified by Protein-A agarose affinity chromatography (SUGEN, Inc.). • 7. PBS (Dulbecco's Phosphate-Buffered Saline) Gibco Cat. No. 450-1300EB). • 8. HNTG (see BIOCHEMICAL FGFR for preparation). • 9. Pierce BCA protein determination kit. • 10. Blocking buffer • 11. TBST (pH 7.0) • 12. Kinase Buffer • 13. Kinase Stop Solution: 200 mM EDTA. • 14. […] AB kit (Vector Laboratories Cat. No. PK 4000). • 16. DMSO • 17. NUNC 96-well V bottom polypropylene plates (Applied Scientific Cat. No. AS-72092). • 18. Turbo-TMB (Pierce). • 19. Turbo-TMB stop solution: 1 M H2SO4. • 20. ATP (Sigma Cat. No. A-7699). • 21. 20% DMSO in TBS (pH 7.0). Procedure
Cell Growth and Lysate Preparation. • 1. Seed cell into growth medium and grow for 2-3 days to 90-100% confluency at 37° C. and 5% CO2.
2. Remove the medium and wash the cells twice with PBS. Lyse with HNTG lysis buffer. Collect all lysates and vortex mix them for 20-30 seconds. • 3. Remove insoluble material by centrifugation (5-10 min at about 10,000 ×g). • 4. Determine the protein concentration using BCA kit. • 5. Partition lysate into 1 mg aliquots, store at −80° C.
Assay Procedure • 1. Coat Corning 96-well ELISA plates with 2 μg/well purified L4 (or E 38) in 100 μl of PBS. Store overnight at […] • 2. Remove unbound proteins from wells by inverting the plate to remove the liquid. Wash one time with dH2O, pat plate on paper towel to remove excess liquid. • 3. Block plates with 150 μl blocking buffer per well. Incubate for 45-60 minutes with shaking at 4° C. • 4. Remove the blocking buffer and wash the ELISA plate three times with dH2O and one time with TBST. Pat plate on paper towel to remove excess liquid. • 5. Dilute lysate in PBS to give final concentration of 50 μg/100 μl. Add 100 μl of diluted lysate to each well. Incubate with shaking at 4° C. overnight. • 6. Remove unbound proteins from wells by inverting the plate. Wash as in step 4. • 7. Add 80 μl of kinase buffer to wells (90 μl to negative control wells). • 8. Dilute test compounds (normally 10-fold) into wells of a polypropylene plate containing 20% DMSO in TBS. • 9. Add 10 μl of the diluted compounds to the ELISA wells containing immobilized flk-1 and shake. Control wells receive no compounds. • 10. From stock 1 mM ATP, prepare 0.3 mM ATP solution in dH2O (alternatively, kinase buffer may be used). • 11. Add 10 μl of 0.3 mM ATP to all wells except the negative controls. Incubate for 60 min. at room temperature with shaking. • 12. After 1 hr stop the kinase reaction by adding 11 μl 200 mM EDTA. Shake for 1-2 min. • 13. Wash the ELISA plate 4 times with dH2O and twice with TBST. • 14. Add 100 μl of 1:5000 biotinylated 4G10:TBST to all wells. Incubate 45 min with shaking at room temperature. • 15. While the above is incubating, add 50 μl of solutions A & B from the ABC kit to 10 ml of TBST. These solutions must be combined approximately 30 min prior to use. • 16. Wash plates as in step 4. • 17. Add 100 μl of the preformed A & B complex to all wells. Incubate 30 min with shaking at room temperature. • 18. Wash plates as in step 4. • 19. Add 100 μl turbo-TMB. Shake at room temperature for 10-15 min. • 20. When the color in the positive control wells reaches an absorbance of about 0.35-0.4, stop the reaction with 100 μl of turbo-TMB stop solution. • 21. Read plates on Dynatech MR7000 ELISA reader, test filter: 450 nM, reference filter: 410 nM.

A further test concerns the target T3, flkGST (Homo sapiens, UniProt P35968).
T3 construct: GST
Kind of test: bio flkGST assay. The class given is biochemical.

The next test concerns the target pyk2 (Homo sapiens, UniProt Q14289). Description: bio pyk2 assay. The class given is biochemical.

Chain of pyk2 (Q14289 whole entry, species assumed): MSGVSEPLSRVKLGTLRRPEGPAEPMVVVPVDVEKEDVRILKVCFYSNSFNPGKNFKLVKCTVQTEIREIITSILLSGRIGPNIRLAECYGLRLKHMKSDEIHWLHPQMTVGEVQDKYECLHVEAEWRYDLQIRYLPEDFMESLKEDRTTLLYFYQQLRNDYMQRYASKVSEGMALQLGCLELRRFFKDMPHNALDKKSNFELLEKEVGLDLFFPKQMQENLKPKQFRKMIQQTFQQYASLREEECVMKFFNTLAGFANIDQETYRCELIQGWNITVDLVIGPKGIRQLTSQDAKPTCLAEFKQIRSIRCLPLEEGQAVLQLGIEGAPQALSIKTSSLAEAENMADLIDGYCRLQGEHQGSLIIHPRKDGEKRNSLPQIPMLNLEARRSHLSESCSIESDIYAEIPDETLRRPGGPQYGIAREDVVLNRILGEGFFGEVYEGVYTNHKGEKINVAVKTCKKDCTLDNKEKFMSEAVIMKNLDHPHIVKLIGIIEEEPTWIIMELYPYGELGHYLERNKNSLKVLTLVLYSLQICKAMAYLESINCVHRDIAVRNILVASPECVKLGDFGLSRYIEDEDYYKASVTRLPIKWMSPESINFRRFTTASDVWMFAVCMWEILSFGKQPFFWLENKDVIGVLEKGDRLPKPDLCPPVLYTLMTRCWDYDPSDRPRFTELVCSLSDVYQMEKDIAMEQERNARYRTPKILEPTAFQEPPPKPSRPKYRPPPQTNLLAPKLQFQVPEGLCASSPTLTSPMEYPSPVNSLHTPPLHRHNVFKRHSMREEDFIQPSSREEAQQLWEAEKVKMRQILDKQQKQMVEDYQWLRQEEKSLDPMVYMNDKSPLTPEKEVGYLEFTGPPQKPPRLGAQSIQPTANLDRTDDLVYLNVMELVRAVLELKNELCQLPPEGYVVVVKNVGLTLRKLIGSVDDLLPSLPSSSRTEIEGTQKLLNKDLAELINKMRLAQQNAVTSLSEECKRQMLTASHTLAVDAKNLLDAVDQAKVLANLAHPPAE
T1 sequence (P09619 33-1106): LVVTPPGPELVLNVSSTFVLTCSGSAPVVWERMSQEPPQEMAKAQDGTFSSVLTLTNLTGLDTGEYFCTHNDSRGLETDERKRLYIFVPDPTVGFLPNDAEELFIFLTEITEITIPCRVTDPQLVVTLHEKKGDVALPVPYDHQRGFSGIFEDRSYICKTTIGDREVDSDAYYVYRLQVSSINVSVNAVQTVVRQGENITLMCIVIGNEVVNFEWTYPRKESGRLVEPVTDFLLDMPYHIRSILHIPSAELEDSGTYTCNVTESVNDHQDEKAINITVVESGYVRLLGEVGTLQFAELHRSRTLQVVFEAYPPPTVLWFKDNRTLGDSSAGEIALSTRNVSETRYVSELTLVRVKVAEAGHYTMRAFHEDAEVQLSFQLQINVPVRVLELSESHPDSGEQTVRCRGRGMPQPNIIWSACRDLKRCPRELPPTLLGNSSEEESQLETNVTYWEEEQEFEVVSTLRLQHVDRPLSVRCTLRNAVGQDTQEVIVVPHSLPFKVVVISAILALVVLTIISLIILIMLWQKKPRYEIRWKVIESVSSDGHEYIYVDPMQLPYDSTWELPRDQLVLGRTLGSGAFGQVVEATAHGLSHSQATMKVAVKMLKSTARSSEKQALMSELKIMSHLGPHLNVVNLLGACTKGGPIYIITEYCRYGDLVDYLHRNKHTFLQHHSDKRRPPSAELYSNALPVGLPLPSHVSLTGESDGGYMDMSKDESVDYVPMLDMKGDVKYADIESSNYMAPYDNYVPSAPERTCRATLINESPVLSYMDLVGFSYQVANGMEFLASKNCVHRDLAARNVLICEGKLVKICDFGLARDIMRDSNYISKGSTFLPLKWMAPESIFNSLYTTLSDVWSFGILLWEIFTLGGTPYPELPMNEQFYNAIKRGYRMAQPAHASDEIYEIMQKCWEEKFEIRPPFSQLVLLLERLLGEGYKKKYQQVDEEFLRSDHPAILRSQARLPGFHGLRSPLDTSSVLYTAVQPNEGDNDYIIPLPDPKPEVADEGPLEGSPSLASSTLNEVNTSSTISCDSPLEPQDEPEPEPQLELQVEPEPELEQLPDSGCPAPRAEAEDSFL
T3 sequence (P35968 786-1356 limits assumed): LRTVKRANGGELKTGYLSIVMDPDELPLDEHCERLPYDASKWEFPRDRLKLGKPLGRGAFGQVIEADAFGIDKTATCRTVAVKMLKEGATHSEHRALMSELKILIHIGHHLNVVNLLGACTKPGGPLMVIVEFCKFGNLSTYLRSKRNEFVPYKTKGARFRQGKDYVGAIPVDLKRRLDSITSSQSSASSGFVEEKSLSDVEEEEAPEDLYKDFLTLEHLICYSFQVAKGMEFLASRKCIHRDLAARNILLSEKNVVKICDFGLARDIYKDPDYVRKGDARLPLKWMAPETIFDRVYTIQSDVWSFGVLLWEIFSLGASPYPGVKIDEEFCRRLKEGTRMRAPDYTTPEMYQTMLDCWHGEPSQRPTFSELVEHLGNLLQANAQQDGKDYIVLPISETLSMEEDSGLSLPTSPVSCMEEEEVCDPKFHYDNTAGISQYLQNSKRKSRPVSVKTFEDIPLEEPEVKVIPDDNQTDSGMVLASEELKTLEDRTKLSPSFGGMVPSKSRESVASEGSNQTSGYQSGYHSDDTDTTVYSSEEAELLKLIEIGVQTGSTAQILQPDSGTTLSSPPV

Turning to `Cc1cccc2c1/C(=C/c1[nH]c3ccccc3c1C)C(=O)N2` [Example 170, 4-Methyl-3-(3-methyl-1H-indol-2-ylmethylene)-1,3-dihydroindol-2-one], the values for the IC50 (on PDGFR-β; in test [1]; at human flk-1) were above 100 µM, above 20 µM and 10.7 µM, respectively.
On to `Cc1c(/C=C2\C(=O)Nc3ccc(S(N)(=O)=O)cc32)[nH]c2ccccc12` [Example 175, 3-(3-Methyl-1H-indol-2-ylmethylene)-2-oxo-2,3-dihydro-1H-indole-5-sulfonic acid amide], for which the IC50 was 55.4 µM at PDGFR-β, 0.73 µM in test [1], 1.51 µM against flkGST and 5.53 µM on pyk2.
In the same order, the values of `CN(C)S(=O)(=O)c1ccc2c(c1)/C(=C/c1ccc3[nH]ccc3c1)C(=O)N2` [Example 183, 3-(1H-Indol-5-ylmethylene)-2-oxo-2,3-dihydro-1H-indole-5-sulfonic acid dimethylamide] are above 100 µM, 7.68 µM, 1.55 µM and above 100 µM.
With `CN(C)S(=O)(=O)c1ccc2c(c1)/C(=C/c1cc3ccccc3[nH]1)C(=O)N2` [Example 186, 3-(1H-Indol-2-ylmethylene)-2-oxo-2,3-dihydro-1H-indole-5-sulfonic acid dimethylamide], the IC50 on PDGFR-β was above 100 µM; in test [1], 10.4 µM; against flkGST it was 6.12 µM; against pyk2 it was above 100 µM.
As for `CNS(=O)(=O)c1ccc2c(c1)/C(=C/c1c[nH]c3ccccc13)C(=O)N2` [Example 178, 3-(1H-Indol-3-ylmethylene)-2-oxo-2,3-dihydro-1H-indole-5-sulfonic acid methylamide], the concentration for half-maximal inhibition (IC50) on PDGFR-β was above 100 µM; in test [1] it was 3.23 µM; on flkGST it was above 20 µM; against pyk2, 57.1 µM.
Regarding `Cc1[nH]c2ccccc2c1/C=C1\C(=O)Nc2ccc(S(N)(=O)=O)cc21` [Example 189, 3-(2-Methyl-1H-indol-3-ylmethylene)-2-oxo-2,3-dihydro-1H-indole-5-sulfonic acid amide], the IC50 was above 100 µM on PDGFR-β, above 20 µM in test [1], above 20 µM on flkGST and above 100 µM at pyk2.
Take `CC(=O)c1ccc2c(c1)C(=Cc1cc3ccccc3[nH]1)C(=O)N2` [Example 158, 5-Acetyl-3-(1H-indol-2-ylmethylene)-1,3-dihydro-indol-2-one]: the IC50 was 18 µM at PDGFR-β, above 20 µM in test [1], 0.26 µM on flkGST and 12.3 µM on pyk2.
For `O=C1Nc2ccc(C(=O)O)cc2/C1=C/c1cc2ccccc2[nH]1` [Example 161, 3-(-1H-Indol-2-ylmethylene)-2-oxo-2,3-dihydro-1H-indole-5-carboxylic acid], the IC50 at PDGFR-β is 25.1 µM; in test [1] it was above 20 µM; on human flk-1, 2.1 µM; on flkGST, below 0.008 µM.
Regarding `CN(C)S(=O)(=O)c1ccc2c(c1)/C(=C/c1c[nH]c3ccccc13)C(=O)N2` [Example 188, 3-(1H-Indol-3-ylmethylene)-2-oxo-2,3-dihydro-1H-indole-5-sulfonic acid dimethylamide], the IC50 on PDGFR-β is above 100 µM; in test [1], 17.5 µM; against flkGST it was above 20 µM; against pyk2, 66.4 µM.
For `Cc1c(/C=C2\C(=O)Nc3ccc(Br)cc32)[nH]c2ccccc12` [Example 169, 5-bromo-3-(3-methyl-1H-indol-2-ylmethylene)-1,3-dihydro-indol-2-one], the IC50 at PDGFR-β was above 100 µM; in test [1], above 20 µM; on human flk-1, 15.8 µM.
As to `CNS(=O)(=O)c1ccc2c(c1)/C(=C/c1[nH]c3ccccc3c1CCCN(C)C)C(=O)N2` [Example 149, 3-[3-(3-Dimethylaminopropyl)-1H-indol-2-ylmethylene]-2-oxo-2,3-dihydro-1H-indole-5-sulfonic acid methylamide], the IC50 worked out at 5.26 µM on PDGFR-β, 0.77 µM in test [1], 2.66 µM against flkGST and 5.02 µM on pyk2.
As to `Nc1ccc2c(c1)/C(=C/c1cc3ccccc3[nH]1)C(=O)N2` [Example 160, 5-Amino-3-(1H-indol-2-ylmethylene)-1,3-dihydro-indol-2-one], the IC50 came out at 2.72 µM on PDGFR-β, 5.27 µM in test [1], 1.53 µM on human flk-1 and 0.12 µM at flkGST.
Take `COc1ccccc1-c1ccc2c(c1)NC(=O)/C2=C\c1[nH]c2c(c1CCC(=O)O)CCCC2` [Example 207, 3-{2-[6-(2-Methoxyphenyl)-2-oxo-1,2-dihydro-indol-3-ylidenemethyl]-4,5,6,7-tetrahydro-1H-indol-3-yl}-propionic acid]: the IC50 on PDGFR-β was found to be 0.87 µM; in test [1], 7.7 µM; on human flk-1, 2.72 µM; on flkGST, 1.5 µM.
